Among the data in ChEMBL document CHEMBL1125334, “New nonpeptide angiotensin II receptor antagonists. 2. Synthesis, biological properties, and structure-activity relationships of 2-alkyl-4-(biphenylylmethoxy)quinoline derivatives” (J Med Chem, 1992) are ED50 and IC50 values, retold here.

Experiment [1] concerns the target Angiotensin II receptor (Rattus norvegicus) (UniProt P29089+P25095+P35351). Kind of experiment: (§1) Intravenous administration to conscious rats for inhibition of pressor response induced by infusion of AII (angiotensin-II). It counts as functional, organism-based.
Experiment [2] concerns the target T1, Type-1 angiotensin II receptor (Cavia porcellus, UniProt Q9WV26).
T1 sequence (Q9WV26 whole entry): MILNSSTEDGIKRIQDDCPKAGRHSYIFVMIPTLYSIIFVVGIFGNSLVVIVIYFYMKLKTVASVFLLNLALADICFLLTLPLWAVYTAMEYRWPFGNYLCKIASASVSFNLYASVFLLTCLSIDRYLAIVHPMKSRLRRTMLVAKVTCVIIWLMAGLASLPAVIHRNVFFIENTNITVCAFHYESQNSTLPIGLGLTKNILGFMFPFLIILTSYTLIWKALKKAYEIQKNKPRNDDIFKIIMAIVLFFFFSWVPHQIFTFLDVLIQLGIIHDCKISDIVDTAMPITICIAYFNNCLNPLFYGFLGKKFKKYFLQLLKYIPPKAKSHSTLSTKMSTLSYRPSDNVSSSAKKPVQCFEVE
In words: In vitro inhibition of the specific binding of [125I]angiotensin II to a guinea pig adrenal membrane preparation.

The test system of the next experiment is Rattus norvegicus. The experiment is described as §1. It counts as functional.

SMILES strings stand for the structures. pIC50: −log10 of the molar value.

For `Cc1cc(OCc2ccc(-c3ccccc3-c3nn[nH]n3)cc2)c2cccc(C)c2n1`, the ED50 in experiment [1] is > 5 mg/kg. In addition, the pIC50 in experiment [2] was 6.51.
Consider `CCc1cc(OCc2ccc(-c3ccccc3-c3nn[nH]n3)cc2)c2ccc(OC)cc2n1`, for which the 50% effective dose (ED50) in experiment [1] is > 5 mg/kg.
Still for that read-out and setting: the result for `CCc1cc(OCc2ccc(-c3ccccc3-c3nn[nH]n3)cc2)c2cc(C#N)ccc2n1` reads > 5 mg/kg.
In experiment [2], `CCCCc1nc(Cl)c(CO)n1Cc1ccc(-c2ccccc2C(=O)O)cc1` had a pIC50 of 6.37.
Consider `Cc1ccc2nc(C)cc(OCc3ccc(-c4ccccc4-c4nn[nH]n4)cc3)c2c1`, for which the ED50 in experiment [1] was > 5 mg/kg. Moreover, the negative-log IC50 (pIC50) in experiment [2] is 6.33.
Consider `Cc1nc2ccccc2c(OCc2ccc(-c3ccccc3-c3nnn[nH]3)cc2)c1C`, for which the pIC50 in experiment [2] was 5.34.
The same measure, in the same setting: the result for `CCCc1cc(OCc2ccc(-c3ccccc3C(=O)O)cc2)c2ccccc2n1` reads 6.22.
Consider `CCc1cc(OCc2ccc(-c3ccccc3-c3nn[nH]n3)cc2)c2cccc(OC)c2n1`, for which the ED50 in experiment [1] is > 5 mg/kg. This compound also showed a pIC50 in experiment [2] of 6.02.
`CCc1cc(OCc2ccc(-c3ccccc3-c3nnn[nH]3)cc2)c2cc(OC(C)C)ccc2n1` had a pIC50 in experiment [2] of 7.59.
For `Cc1cc(OCc2ccc(-c3ccccc3-c3nn[nH]n3)cc2)c2ccccc2n1`, the 50% effect level in experiment [1] (ED50) was put at a dose of 0.73 mg/kg.
`CCc1cc(OCc2ccc(-c3ccccc3-c3nnn[nH]3)cc2)c2cccc(Cl)c2n1`: in experiment [2], the pIC50 is 6.85.
Take `CCc1cc(OCc2ccc(-c3ccccc3-c3nn[nH]n3)cc2)c2cc(OC)ccc2n1`: in experiment [1], the 50% effect level (ED50) was put at a dose of 0.32 mg/kg. Moreover, the pIC50 in experiment [2] is 7.66.
With `Cc1cc(OCc2ccc(-c3ccccc3C(=O)O)cc2)c2ccccc2n1`, the pIC50 in experiment [2] was 6.74.
As for `CCc1cc(OCc2ccc(-c3ccccc3-c3nnn[nH]3)cc2)c2ccccc2n1`, the pIC50 in experiment [2] is 7.51. In addition, the ED50 in the experiment on Rattus norvegicus turned out to be 1 mg/kg.
With `CCc1cc(OCc2ccc(-c3ccccc3-c3nnn[nH]3)cc2)c2c(C)cccc2n1`, the pIC50 in experiment [2] was 7.89.
In experiment [1], `CCc1cc(OCc2ccc(-c3ccccc3-c3nn[nH]n3)cc2)c2cc(C(=O)OC)ccc2n1` showed an ED50 of 2.1 mg/kg. Also, the pIC50 in experiment [2] is 7.18.
Regarding `CCc1cc(OCc2ccc(-c3ccccc3-c3nnn[nH]3)cc2)c2c(Cl)cccc2n1`, the pIC50 in experiment [2] was 6.92.
Regarding `CCc1cc(OCc2ccc(-c3ccccc3-c3nn[nH]n3)cc2)c2cccc(C(F)(F)F)c2n1`, the ED50 in experiment [1] was > 5 mg/kg.
In experiment [2], `CCc1cc(OCc2ccc(-c3ccccc3-c3nnn[nH]3)cc2)c2cc(C#N)ccc2n1` showed a pIC50 of 6.44.
For `CCc1cc(OCc2ccc(-c3ccccc3-c3nn[nH]n3)cc2)c2c(Cl)cccc2n1`, the ED50 in experiment [1] is > 5 mg/kg.
Same read-out and setting: the figure for `CCCCc1nc(Cl)c(CO)n1Cc1ccc(-c2ccccc2-c2nnn[nH]2)cc1` is 0.65 mg/kg.
Compound `Cc1cc(CCc2ccc(-c3ccccc3-c3nnn[nH]3)cc2)c2ccccc2n1` had a pIC50 in experiment [2] of 6.57.
The same measure, in the same setting: the figure for `CCCCc1nc(Cl)c(CO)n1Cc1ccc(-c2ccccc2-c2nn[nH]n2)cc1` [LOSARTAN POTASSIUM] is 7.74.
As to `CCc1cc(OCc2ccc(-c3ccccc3-c3nn[nH]n3)cc2)c2cc(C(F)(F)F)ccc2n1`, in experiment [1], the ED50 was > 5 mg/kg.
Take `c1ccc(-c2nnn[nH]2)c(-c2ccc(COc3ccnc4ccccc34)cc2)c1`: the pIC50 in experiment [2] is 5.20.
`Cc1cc(SCc2ccc(-c3ccccc3-c3nn[nH]n3)cc2)c2ccccc2n1`: in experiment [2], the pIC50 is 6.43.
Regarding `CCc1cc(OCc2ccc(-c3ccccc3-c3nn[nH]n3)cc2)c2cc(OC(C)C)ccc2n1`, the ED50 in experiment [1] was determined as 0.18 mg/kg.
As for `CCc1cc(OCc2ccc(-c3ccccc3-c3nn[nH]n3)cc2)c2ccc(Cl)cc2n1`, in experiment [1], the ED50 is > 5 mg/kg. The pIC50 in experiment [2] is 6.80.
For the compound `CCc1cc(OCc2ccc(-c3ccccc3-c3nnn[nH]3)cc2)c2ccc(OC)cc2n1`, in experiment [2], the pIC50 is 6.66.
Still for that read-out and setting: the result for `CCc1cc(OCc2ccc(-c3ccccc3-c3nnn[nH]3)cc2)c2c(C#N)cccc2n1` reads 7.22.
The compound `CCc1cc(OCc2ccc(-c3ccccc3-c3nn[nH]n3)cc2)c2cc(OCC(F)(F)F)ccc2n1` had an ED50 in experiment [1] of 0.71 mg/kg. In experiment [2], this compound gave a pIC50 of 7.59.
On the same counts, the results for `CCc1cc(OCc2ccc(-c3ccccc3-c3nn[nH]n3)cc2)c2ccc(C#N)cc2n1` are > 5 mg/kg and 6.34.
On the same counts, the results for `CCc1cc(OCc2ccc(-c3ccccc3-c3nn[nH]n3)cc2)c2cc(OCCF)ccc2n1` are 0.34 mg/kg and 7.15.
On the same counts, the results for `CCc1cc(OCc2ccc(-c3ccccc3-c3nn[nH]n3)cc2)c2ccc(C)cc2n1` are > 5 mg/kg and 6.85.
Compound `CCc1cc(OCc2ccc(-c3ccccc3-c3nnn[nH]3)cc2)c2cc(C(F)(F)F)ccc2n1` showed a pIC50 in experiment [2] of 6.07.
